Patent US20060058250A1, “Methods of treating proliferative skin diseases using carbazole derivatives” (Cephalon, Inc., priority 2004, published 2006)

How the values were obtained:
keratinocytes = conditions: cited from earlier work
[1] = tested on: SCID-mouse-human skin model of psoriasis; conditions: cited from earlier work
psoriasis = test: Case report: patient with severe psoriasis treated with oral lestaurtinib; type: in vivo, human; conditions: person, severe psoriasis in the ankle region; oral solution 60 mg bid, 80 mg bid after 29 days; observed on day 60
Description: A patient with a history of renal and prostate cancer, arthritic pain and chronic bronchitis presented with severe psoriasis in the ankle region. The patient started treatment with lestaurtinib at a dosage of 60 mg bid. Lestaurtinib was administered twice daily as an oral solution at a concentration of 25 mg/mL in polysorbate 80 NF (10 mL) and propylene glycol USP (10 mL), diluted in juice. The following juices are approved for use to administer lestaurtinib: grape, pineapple, apple, V8® 100% vegetable juice, and orange juice (pulp free). After 29 days from initiation, the dosage was increased to 80 mg bid.

Structure (SMILES) | block of autocrine NGF loop and keratinocyte apoptosis (keratinocytes) | improvement in the skin condition [1] | remission of psoriasis (psoriasis)
COC(=O)[C@@]1(O)C[C@H]2O[C@]1(C)n1c3ccccc3c3c4c(c5c6ccccc6n2c5c31)C(=O)NC4 [Compound K-252a, K-252a] | can block an autocrine NGF loop and result in keratinocyte apoptosis | noticeable improvement in the skin condition | 
C[C@]12O[C@H](C[C@]1(O)CO)n1c3ccccc3c3c4c(c5c6ccccc6n2c5c31)CNC4=O [lestaurtinib] |  |  | relative remission of psoriasis
